Test results taken from US8937193B2, “Apogossypolone derivatives as anticancer agents” (Sanford-Burnham Medical Research Institute, priority 2009, dated 2015).
Where “and” joins values, the source holds several entries; their conditions need not be identical. Identical values can stand only once. Entries after “also recorded” stand apart in the source; their conditions may differ.

How the values were obtained:
[1] = administered orally (6a); cited from earlier work
BP3 cell line = assay: Annexin V-FITC and propidium iodide apoptosis assay, BP3; type: cell-based, human; details: for EC50: Homo sapiens, BP3, 24 h, Annexin V-FITC and propidium iodide assay, 1 day
EC50 values of FIG. 3(B) = details: test not named
primary CLL cells = assay: Annexin-V apoptosis assay, primary CLL cells; type: cell-based, human
PC3 cell line = assay: ATP-LITE cell viability assay, PC3; type: cell-based; details: Homo sapiens, PC-3, 72 h, 3 days
Procedure: (§1) The activity of the compounds against human cancer cell lines (PC3, H460, H1299) were assessed by using the ATP-LITE assay (PerkinElmer). All cells were seeded in either […] or RPMI1640 medium with 5 mM L-glutamine supplemented with 5% fetal bovine serum (Mediatech Inc.), penicillin and streptomycin (Omega). For maintenance, cells were cultured in 5% FBS. Cells plated into 96 well plates at varying initial densities depending on doubling time. H460 and H1299 plated at 2000 cells/well and PC3 at 3000 cells/well. Compounds were diluted to final concentrations with 0.1% DMSO. Prior to dispensing compounds onto cells, fresh 5% media was placed into wells. Administration of compounds occurred 24 hours after seeding into the fresh media. Cell viability was evaluated using ATP-LITE reagent (PerkinElmer) after 72 hours of treatment. Data were normalized to the DMSO control-treated cells using Prism version 5.01 (Graphpad Software).

H460 cell line = assay: ATP-LITE cell viability assay, H460; type: cell-based; details: Homo sapiens, NCI-H460, 72 h, 3 days
Procedure: (§2) The activity of the compounds of Formula I against human cancer cell lines (PC3ML, H460, H1299, RS11846) may be assessed by using the ATP-LITE assay (PerkinElmer). All cells are seeded in either F12 or RPMI1640 medium with 5 mM L-glutamine supplemented with 5% fetal bovine serum (Mediatech Inc.), penicillin and streptomycin (Omega). For maintenance, cells are cultured in 5% FBS. Cells plated into 96 well plates at varying initial densities depending on doubling time. H460 and H1299 plated at 2000 cells/well, A549 and PC3 at 3000 cells/well, and […] at 10,000 cells/well. The compounds are diluted to final concentrations with 0.1% DMSO. Prior to dispensing the compounds onto cells, fresh 5% media is placed into the wells. Administration of compounds occurs 24 hours after seeding into the fresh media. Cell viability may be evaluated using ATP-LITE reagent (PerkinElmer) after 72 hours of treatment. Data are normalized to the DMSO control-treated cells using Prism version 5.01 (Graphpad Software).
as §1

H1299 cell line = assay: ATP-LITE cell viability assay, H1299; type: cell-based; details: Homo sapiens, NCI-H1299, 72 h, 3 days
Procedure: as §2, §1

[2] = In vitro microsomal stability; details: Table 4
[3] = In vitro plasma stability; details: for Plasma Stability (T = 40 mins): Table 4; for degraded after 1 hour incubation in rat plasma: rat plasma (preparations)
RS4;11 cell line = assay: Annexin V-FITC and propidium iodide apoptosis assay, RS4;11; type: cell-based; details: Homo sapiens, RS4-11, 24 h, 1 day
PPC-1 xenograft tumors = assay: PPC-1 tumor xenograft study in nude mice
Bcl-XL = Bcl-XL (Homo sapiens (Human), UniProt Q07817); assay: Fluorescence polarization competitive binding assay (FPA), Bcl-XL; details: displacement of BH3 peptide
Chain of Bcl-XL (Q07817 1-211): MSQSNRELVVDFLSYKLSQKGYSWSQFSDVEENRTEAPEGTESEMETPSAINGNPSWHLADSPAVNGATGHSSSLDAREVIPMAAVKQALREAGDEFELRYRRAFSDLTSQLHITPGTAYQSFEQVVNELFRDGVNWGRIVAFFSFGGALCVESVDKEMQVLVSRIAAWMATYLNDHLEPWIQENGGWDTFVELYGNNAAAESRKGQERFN

EC50 (PC3 cell line) [nM] | EC50 (H460 cell line) [nM] | EC50 (H1299 cell line) [nM] | Structure (SMILES) | Plasma Stability (T = 40 mins) [3] [%] | other results
 |  |  | Cc1cc2c(C(C)C)c(O)c(O)c(C=O)c2c(O)c1-c1c(C)cc2c(C(C)C)c(O)c(O)c(C=O)c2c1O [(−) 1] |  | maximum tolerated dose (MTD) [1]: 50 mg/kg
 |  |  | CN(C)CC[C@H](CSc1ccccc1)Nc1ccc(S(=O)(=O)NC(=O)c2ccc(N3CCN(Cc4ccccc4-c4ccc(Cl)cc4)CC3)cc2)cc1[N+](=O)[O-] [ABT-737, reference compound] |  | cell (cytotoxic) activity against BP3 cell lines (BP3 cell line; result in words): no cell activity; also recorded: no cytotoxic activity
 |  |  | Cc1cc2c(C(=O)Cc3ccccc3)c(O)c(O)cc2c(O)c1-c1c(C)cc2c(C(=O)Cc3ccccc3)c(O)c(O)cc2c1O [BI79D10] |  | EC50 (EC50 values of FIG. 3(B)): 360 nM
2400 ± 240 | 2200 ± 760 | 1320 ± 300 | CC1=C(C2=C(C)C(=O)c3c(cc(O)c(O)c3CCC3CCCCC3)C2=O)C(=O)c2cc(O)c(O)c(CCC3CCCCC3)c2C1=O [Compound 6d, 5,5′-bis(2-cyclohexylethyl)-6,6′,7,7′-tetrahydroxy-3,3′-dimethyl-2,2′-binaphthyl-1,1′,4,4′-tetraone] | 74 | Microsomal Stability (T = 40 mins) [2]: 98%
 |  |  | CC1=C(C2=C(C)C(=O)c3c(cc(O)c(O)c3CCc3ccc(C)cc3)C2=O)C(=O)c2cc(O)c(O)c(CCc3ccc(C)cc3)c2C1=O [Compound 6f, 6,6′,7,7′-tetrahydroxy-3,3′-dimethyl-5,5′-bis(4-methylphenethyl)-2,2′-binaphthyl-1,1′,4,4′-tetraone] | 86 | LD50 primary CLL samples (primary CLL cells; six CLL samples from six different patients): 1.0 to 16.9 µM; LD50 primary CLL samples (primary CLL cells; two primary CLL samples, one day Annexin-V apoptosis assay): 10 µM and 15 µM; average body weight losses during the treatment (PPC-1 xenograft tumors; 50 mg/kg i.p.): 6.8%; signs of toxicity (PPC-1 xenograft tumors; 50 mg/kg i.p.): no observable signs of toxicity; weight loss in first week (PPC-1 xenograft tumors; 50 mg/kg i.p. three times in first week): ~5%; degraded after 1 hour incubation in rat plasma [3]: 14%
2000 ± 170 | 1620 ± 160 | 2160 ± 270 | CC1=C(C2=C(C)C(=O)c3c(cc(O)c(O)c3CCC(C)(C)c3ccccc3)C2=O)C(=O)c2cc(O)c(O)c(CCC(C)(C)c3ccccc3)c2C1=O [Compound 6h, 6,6′,7,7′-tetrahydroxy-3,3′-dimethyl-5,5′-bis(3-methyl-3-phenylbutyl)-2,2′-binaphthyl-1,1′,4,4′-tetraone] |  | 
 |  |  | CC1=C(C2=C(C)C(=O)c3c(cc(O)c(O)c3Cc3ccccc3)C2=O)C(=O)c2cc(O)c(O)c(Cc3ccccc3)c2C1=O [Compound 6i, 5,5′-dibenzyl-6,6′,7,7′-tetrahydroxy-3,3′-dimethyl-2,2′-binaphthyl-1,1′,4,4′-tetraone] | 95 | IC50 (Bcl-XL): 160 to 630 nM; degraded after 1 hour incubation in rat plasma [3]: 5%
8990 ± 2490 | 1440 ± 200 | 2380 ± 210 | CC1=C(C2=C(C)C(=O)c3c(cc(O)c(O)c3CCc3ccc(OC(F)(F)F)cc3)C2=O)C(=O)c2cc(O)c(O)c(CCc3ccc(OC(F)(F)F)cc3)c2C1=O [Compound 6j, 6,6′,7,7′-tetrahydroxy-3,3′-dimethyl-5,5′-bis(4-(trifluoromethoxy)phenethyl)-2,2′-binaphthyl-1,1′,4,4′-tetraone] |  | 
2620 ± 310 | 1480 ± 20 | 1910 ± 170 | CC1=C(C2=C(C)C(=O)c3c(cc(O)c(O)c3CCCc3ccc(F)cc3)C2=O)C(=O)c2cc(O)c(O)c(CCCc3ccc(F)cc3)c2C1=O [Compound 6k, 5,5′-bis(3-(4-fluorophenyl)propyl)-6,6′,7,7′-tetrahydroxy-3,3′-dimethyl-2,2′-binaphthyl-1,1′,4,4′-tetraone] |  | 
 |  |  | CC1=C(C2=C(C)C(=O)c3c(cc(O)c(O)c3Cc3ccc(Cl)cc3)C2=O)C(=O)c2cc(O)c(O)c(Cc3ccc(Cl)cc3)c2C1=O [Compound 6l, 5,5′-bis(4-chlorobenzyl)-6,6′,7,7′-tetrahydroxy-3,3′-dimethyl-2,2′-binaphthyl-1,1′,4,4′-tetraone] |  | IC50 (Bcl-XL): 160 to 630 nM
2970 ± 980 | 980 ± 150 | 10300 ± 3840 | CC1=C(C2=C(C)C(=O)c3c(cc(O)c(O)c3Cc3ccc(-c4ccccc4)cc3)C2=O)C(=O)c2cc(O)c(O)c(Cc3ccc(-c4ccccc4)cc3)c2C1=O [Compound 6m, 5,5′-bis(biphenyl-4-ylmethyl)-6,6′,7,7′-tetrahydroxy-3,3′-dimethyl-2,2′-binaphthyl-1,1′,4,4′-tetraone] |  | 
5440 ± 340 | 6160 ± 1480 | > 30000 | CC1=C(C2=C(C)C(=O)c3c(cc(O)c(O)c3C(=O)NCc3cccc(C)c3)C2=O)C(=O)c2cc(O)c(O)c(C(=O)NCc3cccc(C)c3)c2C1=O [Compound 8b, 6,6′,7,7′-tetrahydroxy-3,3′-dimethyl-N^5,N^5′-bis(3-methylbenzyl)-1,1′,4,4′-tetraoxo-1,1′,4,4′-tetrahydro-2,2′-binaphthyl-5,5′-dicarboxamide] |  | 
 |  |  | CCc1ccc(CCNC(=O)c2c(O)c(O)cc3c2C(=O)C(C)=C(C2=C(C)C(=O)c4c(cc(O)c(O)c4C(=O)NCCc4ccc(CC)cc4)C2=O)C3=O)cc1 [Compound 8c, N^5,N^5′-Bis(4-ethylphenethyl)-6,6′,7,7′-tetrahydroxy-3,3′-dimethyl-1,1′,4,4′-tetraoxo-1,1′,4,4′-tetrahydro-2,2′-binaphthyl-5,5′-dicarboxamide] |  | IC50 (Bcl-XL): 160 to 630 nM
 |  |  | Cc1cc2c(C(C)C)c(O)c(O)c(C=O)c2c(O)c1-c1c(C)cc2c(C(C)C)c(O)c(O)c(C=O)c2c1O [Gossypol, 1,1′,6,6′,7,7′-Hexahydroxy-5,5′-diisopropyl-3,3′-dimethyl-2,2′-binaphthyl-8,8′-dicarboxaldehyde] |  | mortality in first week (PPC-1 xenograft tumors; 25 mg/kg, i.p.): died

Structure (SMILES) | EC50 (PC3 cell line) [nM] | EC50 (H460 cell line) [nM] | EC50 (H1299 cell line) [nM] | Plasma Stability (T = 40 mins) [3] [%] | other results
CC1=C(C2=C(C)C(=O)c3c(cc(O)c(O)c3CC3CCCC3)C2=O)C(=O)c2cc(O)c(O)c(CC3CCCC3)c2C1=O [Compound 6c, 5,5′-bis(cyclopentylmethyl)-6,6′,7,7′-tetrahydroxy-3,3′-dimethyl-2,2′-binaphthyl-1,1′,4,4′-tetraone] | 5500 ± 740 | 700 ± 340 | 2320 ± 510 |  | LD50 primary CLL samples (primary CLL cells; comparison of 6c with 6a): 6.5 µM
CC1=C(C2=C(C)C(=O)c3c(cc(O)c(O)c3CCc3ccccc3)C2=O)C(=O)c2cc(O)c(O)c(CCc3ccccc3)c2C1=O [Compound 6e, 6,6′,7,7′-tetrahydroxy-3,3′-dimethyl-5,5′-diphenethyl-2,2′-binaphthyl-1,1′,4,4′-tetraone] | 1400 ± 140 | 1040 ± 130 | 850 ± 360 | 81 | EC50 (RS4;11 cell line): 4750 ± 10 nM; EC50 (BP3 cell line): 8720 ± 2530 nM; Microsomal Stability (T = 40 mins) [2]: 89%
CC1=C(C2=C(C)C(=O)c3c(cc(O)c(O)c3CCCc3ccccc3)C2=O)C(=O)c2cc(O)c(O)c(CCCc3ccccc3)c2C1=O [Compound 6g, 6,6′,7,7′-tetrahydroxy-3,3′-dimethyl-5,5′-bis(3-phenylpropyl)-2,2′-binaphthyl-1,1′,4,4′-tetraone] | 1300 ± 180 | 920 ± 90 | 1530 ± 410 | 87 | EC50 (RS4;11 cell line): 3830 ± 700 nM; Microsomal Stability (T = 40 mins) [2]: 88%
CC1=C(C2=C(C)C(=O)c3c(cc(O)c(O)c3C(=O)Cc3ccccc3)C2=O)C(=O)c2cc(O)c(O)c(C(=O)Cc3ccccc3)c2C1=O [Compound 7, 6,6′,7,7′-Tetrahydroxy-3,3′-dimethyl-5,5′-bis(2-phenylacetyl)-2,2′-binaphthyl-1,1′,4,4′-tetraone] | 5440 ± 240 | 7380 ± 1070 | > 30000 |  | IC50 (Bcl-XL): 160 to 630 nM; EC50 (BP3 cell line): 9580 ± 4160 nM
CC1=C(C2=C(C)C(=O)c3c(cc(O)c(O)c3C(=O)NCC(C)c3ccccc3)C2=O)C(=O)c2cc(O)c(O)c(C(=O)NCC(C)c3ccccc3)c2C1=O (centres unmarked) [Compound 8a, 6,6′,7,7′-Tetrahydroxy-3,3′-dimethyl-1,1′,4,4′-tetraoxo-N^5,N^5′-bis(2-phenylpropyl)-1,1′,4,4′-tetrahydro-2,2′-binaphthyl-5,5′-dicarboxamide] |  |  | > 30000 | 91 | IC50 (Bcl-XL): 160 to 630 nM; Microsomal Stability (T = 40 mins) [2]: 71%
